The values below come from US11813070B2, “Apparatus for measuring pressure changes in stomach” (VIPUN Medical NV, priority 2017, dated 2023).

“Also recorded” adds a separate entry of the source.

In assay [1] the test system is healthy subjects. The experiment in a line: Gastric emptying rate by 13C-octanoic acid breath test (GET½) after codeine or placebo. It is filed as in vivo, human. Particulars: inflated balloon (200 ml), 60 mg codeine as syrup, single dose, n=6. On the procedure:
The study was designed as a randomized crossover study with 4 groups was (see schematic 14): • 20 ml balloon—placebo • 20 ml balloon—codeine • 200 ml balloon—placebo • 200 ml balloon—codeine
The volunteers received either placebo or codeine as a syrup. After positioning the balloon catheter the balloon was filled with 50 ml for 10 minutes, hereafter the balloon was inflated to 200 ml of deflated to 20 ml depending on the treatment arm. After this and in total 20 minutes after syrup ingestion 150 ml of a nutrient drink (Nutridrink, Nutricia (NL)) was directly infused into the stomach at a constant speed of 75 ml/hour. […]
Gastric emptying rate was measured using the ^13C-octanoic acid breath test (11). ^13C-labeled octanoic acid was solved in the nutrient drink (0.5 mg/ml). Emptying of the stomach was assessed by analysis of the exhaled ^13CO2, after oxidation of octanoic acid in the liver. […]
2) Gastric emptying (breath test). The ratio of ^13CO2 to ^12CO2 (molar mass 45 and 44 gr/mol) in the breath samples collected was measured by isotope ratio mass spectrometry (IRMS; ABCA, Sercon, Crewe, UK). As described before (12) a ^13C recovery rate per hour (% dosage per hour) was calculated per sample taking into account that the total dosage ^13C was administered over 2 hours. […]

Assay [2] relates to healthy subjects. Kind of assay: Gastric motility measured as intragastric balloon pressure (motility index, MI) after codeine or placebo. It is filed as in vivo, human. Particulars: 60 mg codeine as syrup, single dose, n=6. The text has this: The example explored the potential of a balloon with the optimal balloon size as determined in examples 1 and the optimal balloon material characteristics as determined in examples 2. More specifically the aim was 3-fold: • To investigate whether the nasogastric balloon catheter can be used to detect (codeine-induced) decreased gastric motility. • To investigate the correlation between gastric motility and gastric emptying changes after codeine treatment. • To investigate whether the presence of an inflated intragastric balloon influences gastric motility and emptying.
6 healthy subjects were recruited for this study. […] Subjects were asked to come to the clinic after at least 6 hours fasting, none of the subjects were taking any medication apart from contraception pills. […]
The 20 ml balloon experiments served as a control for the 200 ml balloon experiments since the effect of a 200 ml balloon on gastric motility and emptying is unknown. Gastric motility was assessed with a double lumen balloon catheter as described below by measuring the pressure in the balloon with an external pressure sensor. […]
Customized computer software (Pharmlab 5.0; AstraZeneca R&D, Mölndal, Sweden) was used to record pressure as mmHg at 1 Hz. […] The baseline was calculated as follows: […]

`COc1ccc2c3c1O[C@H]1[C@@H](O)C=C[C@H]4[C@@H](C2)N(C)CC[C@@]341` [codeine]: the entries for the “gastric half emptying time (GET½), codeine vs. placebo” value with healthy subjects [1] and in the assay with healthy subjects [1] (listed as Codeine) were “GET½ increased; also recorded: significant treatment effect (P<0.05); also recorded: increased GET½; also recorded: delayed gastric emptying” and “delayed gastric emptying”, respectively. The “gastric contractility expressed as motility index (MI), codeine vs. placebo” value with healthy subjects [2] (deflated balloon (20 ml)) is given as “did not significantly affect MI; also recorded: no effect of treatment; also recorded: No effect of codeine on motility could be detected”; with healthy subjects [2] (inflated balloon (200 ml)), “significant effect on MI (P<0.01); also recorded: motility was always decreased; also recorded: significant treatment effect (P<0.01); also recorded: decreased MI; also recorded: significantly decreased gastric motility”.
